The values below come from patent US20080161336A1, “Orally bioavailable CCI-779 formulations” (Wyeth, priority 2005, published 2008).

The solubility is the concentration that dissolves in the medium under given conditions. A higher solubility goes with a readily soluble substance.

One series can be described thus: Water solubility. Format: physicochemical.
Series [1] in a line: BCS classification system. Format: physicochemical.
In series [2] the test system is histologically diverse tumor cells. As to conditions: in vitro, cited from earlier work.
Series [3] in a line: Stability of CCI-779 (aqueous, oxidation, hydroalcoholic granulation solution). Format: physicochemical. An excerpt: One obstacle towards the formulation of CCI-779 is its poor aqueous dissolution and low oral bioavailability. […] A CCI-779 formulation was developed that employed a wet granulation manufacturing process. See US Published Patent Application No. US-2004-0077677-A1. This process involved preparation of a hydroalcoholic granulation solution of CCI-779. Further, although the resulting tablets were stable and bioavailable, the preparation of the hydroalcoholic solution was very tedious.

The nature of series [4]: Bioavailability study: safety (adverse events, laboratory abnormalities, vital signs). Format: in vivo, human.
Excerpt: On day 1 of each of the 3 study periods, the subjects received a single oral dose of 1 of 4 treatments (treatments A, B, C, or reference).
On day 1 of each of the 3 study periods, the subjects received a single oral dose of 1 of 4 treatments (A, B, C, or reference).
Series [5] is described as follows: Partition coefficient in 1-octanol/water system. Format: physicochemical.

Regarding `COC1C[C@@H]2CC[C@@H](C)[C@@](O)(O2)C(=O)C(=O)N2CCCC[C@H]2C(=O)O[C@H]([C@H](C)CC2CC[C@@H](OC(=O)C(C)(CO)CO)[C@H](OC)C2)CC(=O)[C@H](C)/C=C(\C)[C@@H](O)[C@@H](OC)C(=O)[C@H](C)C[C@H](C)/C=C/C=C/C=C/1C` (stereo partly drawn) [CCI-779, Rapamycin 42-ester with 3-hydroxy-2-(hydroxymethyl)-2-methylpropionic acid], in “Water solubility”, the solubility was < 1 µg/mL. In addition, the BCS classification result in series [1] is on record as “class II”. For the same compound, the “growth of tumor cells” value in series [2] (CNS cancer, leukemia (T-cell), breast cancer, prostate cancer, melanoma lines among the most sensitive) is “inhibit the growth”. Also, the cell cycle effect result in series [2] is given as “arrested cells in the G1 phase”. In addition, the aqueous stability entry in series [3] was “aqueous instability”. In addition, in series [3] (after its preparation), the “stability of hydroalcoholic granulation solution of CCI-779” value was “precipitating within one day”. Moreover, in series [4] (all 45 treatment-emergent AEs), the “severity of treatment-emergent AEs” value is reported as “mild”. Further, in series [4] (all treatments, 4 subjects), the “subjects with aminotransferase elevations” value turned out to be 10%. Also, in series [4] (all treatments, 5 subjects), the “subjects with white blood cells in the urine” value stood at 13%. Further, the “deaths or other serious adverse events” value in series [4] (during the study) was “No deaths or other serious adverse events occurred”. Also, the “vital sign measurements, electrocardiogram results, physical examination findings” value in series [4] (in vivo) is on record as “No clinically significant trends”. Moreover, the “subjects with clinically significant laboratory abnormalities after dose administration” value in series [4] (number of subjects, all treatments) stood at 13. For the same compound, the “AEs considered by the investigator to be related to CCI-779 treatment” value in series [4] (number of the 45 AEs) amounted to 16. For the same compound, in series [4] (of the 40 subjects who received CCI-779, all treatments), the “subjects with at least 1 treatment-emergent adverse event (AE)” value was found to be 48%. The “Log PC” value in series [5] was ≥ 4.1.
